In PMC12268683, “A global perspective on autoinducer-2-mediated cell communication in prokaryotes” (iScience, 2025):

How the values were obtained:
[1] = target: T1, LsrB receptor of S. coelicolor A3(2) (second of two, locus not given); test: isothermal titration calorimetry; assay type: binding, Streptomyces coelicolor; details: 25 °C, 50 mM Tris, 150 mM NaCl, 10% glycerol, pH 8.0; one-site model; no borate added; which of the two LsrB not given
T1 construct: His6-tagged, pET-28a, E. coli BL21(DE3) or its luxS mutant, Ni-NTA
Text: isothermal titration calorimetry on LsrB receptor of S. coelicolor A3(2) (second of two, locus not printed) | the LsrB receptors bound AI-2 with high affinity

[2] = target: T2, LsrB receptor of S. coelicolor A3(2) (first of two, locus not given); test: isothermal titration calorimetry; assay type: binding, Streptomyces coelicolor; details: 25 °C, 50 mM Tris, 150 mM NaCl, 10% glycerol, pH 8.0; one-site model; no borate added; which of the two LsrB not given
T2 construct: His6-tagged, pET-28a, E. coli BL21(DE3) or its luxS mutant, Ni-NTA
Text: isothermal titration calorimetry on LsrB receptor of S. coelicolor A3(2) (first of two, locus not printed) | the LsrB receptors bound AI-2 with high affinity

## CC(=O)C(=O)[C@@H](O)CO [DPD]
[1]
  Kd: 101 ± 10 nM
[2]
  Kd: 175 ± 30 nM
